In patent US11571413B2, “Nicotinamide riboside treatments of domesticated meat animals” (Kansas State University Research Foundation, priority 2017, dated 2023):

System: finished market barrows
Experiment: Performance test to subjective fatigue (Example V)
Assay type: in vivo, pig
Settings: 30 mg/kg BW oral daily; performance test on day 7, 0.88 m/s
Method: Fourteen days prior to harvest, 20 finished market barrows (initial body weight 268 pounds) were randomly assigned to 1 of 2 treatments: 0 or 30 mg/kg body weight of nicotinamide riboside, both orally administered daily in 20 ml of Karo® Syrup. Ten days prior to harvest, pigs were restrained via a snare and treatments were administered. On day 7, barrows were subjected to a performance test where they were walked around a track at 0.88 m/s until subjective fatigue was achieved. Three days following the performance test, barrows were harvested and a portion of the semitendinosus muscle was collected within 45 minutes. These samples were analyzed for NAD+ content via HPLC methodology.

NC(=O)c1ccc[n+]([C@@H]2O[C@H](CO)[C@@H](O)[C@H]2O)c1 [Nicotinamide riboside, nicotinamide riboside]
Ran farther (distance) than unsupplemented barrows, numerically: 16%
Ran longer (time to subjective fatigue) than unsupplemented barrows, numerically: 19%
